# US20030181353A1, “Composition & use as analgesic, anti-inflammatory, wound healing agent, for treatment of heart conditions, assessment of heart function & tissue & cell protection & healing & reperfusion, mood disorders & symptoms & sequelae of menopause & for inducing unconsciousness, sleep & anesthesia” (priority 1998, published 2003)
# System: Intracellular Adenosine
# Assay type: in vivo, rat
structure (smiles),measurement,setting,value
"Nc1nc(=O)c2c([nH]1)NCC(CNc1ccc(C(=O)N[C@@H](CCC(=O)O)C(=O)O)cc1)N2C=O (mixture of isomers) [Follinic Acid (F.A.), folinic acid]","Adenosine levels in the heart, lung and brain","rat, in vivo, po",dramatic increase in adenosine levels
same,Effect of co-administration of folinic acid on adenosine depletion,"rats, co-administered with the depleting agent",completely abrogated adenosine depletion
same,Effect of folinic acid administered alone on adenosine levels,"rats, folinic acid alone, all organs studied",increase in adenosine levels for all organs studied
